Measurements reported in patent publication US9168268B1, “Saponins and chromans derivatives mixture compositions against leishmaniasis, Trypanosomiasis americana, malaria, Trypanosomiasis africana and Fasciola hepatica” (UNIVERSIDAD DE ANTIOQUIA, priority 2013, dated 2015).

Test system: L. amazonensis
Assay: In vivo therapeutic response of hamsters experimentally infected with L. amazonensis (hamster model for cutaneous leishmaniasis)
Settings: for cure rate: hamster model for cutaneous leishmaniasis, L. amazonensis, outcome at end of study (3 months after the end of treatment); for lesion size compared between treatment groups: hamsters infected with L. amazonensis, from the second month after the end of treatment to the end of the study; for activity against Leishmania parasites: leishmanicidal activity as shown in FIG. 4 and FIG. 5
Protocol: The formulation has been tested in vitro and in vivo for their leishmaninicidal activity.
A. TC1 (1.13 mg), B TC1 (4.01%), C: TC2 (1.35 mg), D: TC2 (3.0%), E: TC3 (1.72 mg), F: TC4 (1.25 mg), G: TC4 (4.03%), H: TC18 (3.0%), I: Mixture 1A, 2A, 3A (4.14%), J: Mixture 1A, 2A, 3A (7.77%), K: meglumina antimoniate (1209 mg), L: Vehicle (100 μl) and M: Vehicle (40 mg).
A. TC1 (1.13 mg), B TC1 (4.01%), C: TC2 (1.35 mg), D: TC2 (3.0%), E: TC3 (1.72 mg), F: TC4 (1.25 mg), G: TC4 (4.03%), H: TC18 (3.0%), I: Mixture 1A, 2A, 3A (4.14%), J: Mixture 1A, 2A, 3A (7.77%), K: meglumina antimoniate (1209 mg), L: Vehicle (100 μl) and M: Vehicle (40 mg). BoT: Beginning of Treatment; EoT: End of treatment. 1mAEoT: 1 month after the end of treatment, 2mAEoT: 2 months after the end of treatment, 3mAEoT: 3 months after the end of treatment. […] The efficacy may be increased using other dose or therapeutic schemes.

SMILES | cure rate [%] | lesion size compared between treatment groups | activity against Leishmania parasites
O=C(N/N=C1\CCSc2ccccc21)c1ccccc1 [TC1, Benzoic acid, 2-(2,3-dihydro-4H-1-benzothiopyran-4-ylidene)hydrazide] | 77 | lowest lesion size | exhibited activity
O=C1CCS(=O)(=O)c2ccccc21 [TC18, Thiochroman-4-one, 1,1-dioxide] | 63 | – | exhibited activity
O=C(N/N=C1\CCSc2ccccc21)c1ccncc1 [TC2, 4-Pyridinecarboxylic acid, 2-(2,3-dihydro-4H-1-benzothiopyran-4-ylidene)hydrazid] | – | lowest lesion size | exhibited activity
